Test results from article PMC8129498, “Synthesis, Antitumor and Antiviral In Vitro Activities of New Benzotriazole-Dicarboxamide Derivatives” (Frontiers in Chemistry, 2021).

What was measured:
[1] = system: WIL-2NS; test: Antiproliferative assay (MTT), WIL-2NS; format: cell-based; details: Homo sapiens, WIL2-NS, 96 h, read-out: CC50 WIL-2NS
Method: (§1) Cell lines were purchased from American Type Culture Collection (ATCC). The absence of mycoplasma contamination was checked periodically by the Hoechst staining method. Exponentially growing leukemia and lymphoma cells were seeded at 1 × 10^5 cells/ml in 96 well plates in RPMI-1640 medium, supplemented with 10% fetal bovine serum, 100 units/ml penicillin G, and 100 μg/ml streptomycin, and incubated at 37°C in a humidified, 5% CO2 atmosphere in the absence or presence of serial dilutions of test compounds. Cell viability was determined after 96 h at 37°C by the 3-(4,5-dimethylthiazol-2-yl)-2,5-diphenyl-tetrazolium bromide (MTT) method. Activity against solid-tumor derived cells was evaluated in exponentially growing cultures seeded at 5 × 10^4 cells/ml and allowed to adhere for 16 h to culture plates before the addition of the drugs. Cell viability was determined by the MTT method 4 days later. Vincristine and doxorubicin were used as reference drugs.
(§2) The extent of cell growth/viability and viral multiplication, at each drug concentration tested, were expressed as percentage of untreated controls. Concentrations resulting in 50% inhibition (CC50 or EC50) were determined by linear regression analysis.

[2] = system: OVCAR-4; test: NCI60 Human Tumor Cell Lines Screen, OVCAR-4; format: cell-based; details: OVCAR-4 ovarian cancer cell line, read-out: Percentage of Growth Inhibition (PGI)
Method: (§3) The in vitro anti-cancer screening was performed through the NCI60 Human Tumor Cell Lines Screen, provided by the Developmental Therapeutics Program of the National Cancer Institute (NCI, Bethesda, United States). A single dose of 10 µM of each compound is tested in the whole NCI60 cell panel. More details about the NCI60 screen methods are reported on the NCI website (https://dtp.cancer.gov ).

[3] = system: SK-MES1; test: Antiproliferative assay (MTT), SK-MES1; format: cell-based; details: Homo sapiens, SK-MES-1, 96 h, read-out: CC50 SK-MES1
Method: as §1, §2

[4] = system: SK-MEL28; test: Antiproliferative assay (MTT), SK-MEL28; format: cell-based; details: Homo sapiens, SK-MEL-28, 96 h, read-out: CC50 SK-MEL28
Method: as §1, §2

[5] = system: prostate cancer cell lines; test: NCI60 Human Tumor Cell Lines Screen, prostate cancer lines; format: cell-based; details: the two prostate cancer cell lines
Method: as §3

[6] = system: HeLa; test: Antiproliferative assay (MTT), HeLa; format: cell-based; details: Homo sapiens, 96 h, read-out: CC50 HeLa
Method: as §1, §2

[7] = system: SK-MES 1 cells; test: Apoptosis assay (Annexin V/PI, flow cytometry); format: cell-based, human; details: 96 h
Method: 3b compound was selected as lead and employed in our assay. Human lung cancer cells (SK-MES 1) were seeded at the density of 8 × 10^5 cells/ml in 6-well plates (Corning, United States) with a complete medium (described in cell culture section). After overnight incubations, the cells were treated with or without different concentrations of 3b for 96 h. Cells were then labeled with Annexin V and PI as previously described ([Ibba et al., 2021]). Stained cells were then analyzed by flow cytometry, measuring the fluorescence emission at 530 and 620 nm using 488 nm excitation laser (MoFloAstrios EQ, Beckman Coulter). Cell apoptosis was analyzed using Software Summit Version 6.3.1.1, Beckman Coulter.

[8] = Antiproliferative assay (MTT), CRL 7065 control fibroblasts; format: cell-based, human; details: MTT; human foreskin fibroblasts, non-tumor control; read-out: CC50 CRL 7065
Method: as §1, §2

[9] = system: DU145; test: Antiproliferative assay (MTT), DU145; format: cell-based; details: Homo sapiens, DU-145, 96 h, read-out: CC50 DU145
Method: as §1, §2

[10] = system: breast cancer cell lines; test: NCI60 Human Tumor Cell Lines Screen, breast cancer lines; format: cell-based; details: most of the breast cancer cell lines, read-out: Percentage of Growth Inhibition (PGI)
Method: as §3

[11] = system: panel of 60 human tumor cell lines; test: NCI60 Human Tumor Cell Lines Screen, whole panel; format: cell-based; details: 10 μM, of the 60 cell lines
Method: as §3

[12] = system: CCRF-CEM; test: Antiproliferative assay (MTT), CCRF-CEM; format: cell-based, human; details: for CC50: Homo sapiens, CCRF-CEM, 96 h, read-out: CC50 CCRF-CEM
Method: as §1, §2

[13] = system: CCRF-SB; test: Antiproliferative assay (MTT), CCRF-SB; format: cell-based; details: Homo sapiens, 96 h, read-out: CC50 CCRF-SB
Method: as §1, §2

[14] = system: Poliovirus type-1 (Sb-1); test: microbe, parasite or virus in culture; format: cell-based; details: Enterovirus C, Vero 76, read-out: EC50, plaque reduction Sb-1
[15] = system: Coxsackievirus B5 (CV-B5); test: Plaque reduction assay, CV-B5 in Vero-76 monolayers; format: cell-based; details: Enterovirus B
[16] = Cytotoxicity in Vero-76 cell-line (MTT); format: cell-based; details: monkey (Cercopithecus aethiops), Vero-76 cells (mock-infected), mock-infected Vero-76 cells
Method: Vero-76 cells were seeded in 96-well plates at an initial density of 5 × 10^5 cells/ml, in Dulbecco’s Modified Eagle Medium (D-MEM) with L-glutamine and 25 mg/L kanamycin, supplemented with 10% FBS. Cell cultures were then incubated at 37°C in a humidified and 5% CO2 atmosphere, in the absence or presence of serial dilutions of test compounds. The test medium used for the cytotoxic assay as well as for antiviral assay contained 1% of the appropriate serum. Cell viability was determined after 48–96 h at 37°C by MTT method for Vero-76 ([Pauwels et al., 1988]).
as §2

Compound	CC50 [1]	CC50 [3]	CC50 [4]	CC50 [6]	CC50 at 96 h [8]	CC50 [9]	CC50 [12]	CC50 [13]	melting point	EC50 [14]	EC50 [15]	CC50 [16]	further results
O=C(CCCC(=O)Nc1ccc(-n2nnc3cc(Cl)c(Cl)cc32)cc1)Nc1ccc(-n2nnc3cc(Cl)c(Cl)cc32)cc1 [Compound 3b, N ^1,N ^5-Bis(4-(5,6-Dichloro-1H-Benzo[d][1,2,3]Triazol-1-yl)phenyl)glutaramide]	> 100 µM	6.8 ± 3.5 µM	6.2 ± 1.3 µM	7.1 ± 2.7 µM	0.75 ± 0.05 µM	5.1 µM	0.5 ± 0.1 µM	0.35 ± 0.07 µM					inhibition at 10 µM [2]: 106%; Percentage of Growth Inhibition (PGI) ([5]; 10 μM): 66%; inhibition at 10 µM ([5]; Homo sapiens, read-out: Percentage of Growth Inhibition (PGI)): 80%; % Early apoptotic cells ([7]; 7μM): 21.4 ± 12.32%; % Late apoptotic cells ([7]; 7μM): 10.5 ± 0.67%; % Live cells ([7]; 7μM): 63.8 ± 1.1%; % Necrotic cells ([7]; 7μM): 4.3 ± 0.74%; % Early apoptotic cells ([7]; 20μM): 28.5 ± 4.63%; % Late apoptotic cells ([7]; 20μM): 11.1 ± 2.08%; % Live cells ([7]; 20μM): 54.8 ±4.9%; % Necrotic cells ([7]; 20μM): 5.6 ±1.74%; apoptotic cells ([7]; 7 µm): 32%; apoptotic cells ([7]; 20 µm): 40%; inhibition at 10 µM [10]: 48 to 81%; number of cell lines with PGI higher than 50% [11]: 29
O=C(/C=C/C(=O)Nc1ccc(-n2nnc3cc(Cl)c(Cl)cc32)cc1)Nc1ccc(-n2nnc3cc(Cl)c(Cl)cc32)cc1 [Compound 3d, N ^1 ,N ^4-Bis(4-(5,6-Dichloro-1H-Benzo[d][1,2,3]Triazol-1-yl)phenyl)fumaramide]	> 100 µM	> 100 µM	> 100 µM	> 100 µM	0.37 ± 0.04 µM	> 100 µM	0.07 ± 0.02 µM	7.9 ± 0.9 µM	> 300 °C				selectivity index (SI) ([12]; ratio of CC50 of non-tumor cells (CRL 7065) and CC50 of tumor cells (CCRF-CEM)): 5.3
O=C(O)/C=C/C(=O)Nc1ccc(-n2nnc3cc(Cl)c(Cl)cc32)cc1 [Compound 4d, (E)-4-((4-(5,6-Dichloro-1H-Benzo[d][1,2,3]Triazol-1-yl)phenyl)amino)-4-oxobut-2-enoic Acid]	64 ± 10 µM	> 100 µM	> 100 µM	> 100 µM	1.7 ± 0.1 µM	> 100 µM	3.3 ± 1.7 µM	0.51 ± 0.13 µM	231 to 233 °C	> 100 µM	10 µM	> 100 µM	
O=C(CCCC(=O)Nc1ccc(Cn2nnc3cc(Cl)c(Cl)cc32)cc1)Nc1ccc(Cn2nnc3cc(Cl)c(Cl)cc32)cc1 [Compound 9b, N ^1,N ^5-Bis(4-((5,6-Dichloro-1H-Benzo[d][1,2,3]Triazol-1-yl)methyl)phenyl)Glutaramide]	23 ± 7 µM	9.9 ± 3.1 µM	2.6 ± 0.7 µM	5.4 ± 0.7 µM	6.7 ± 2.4 µM	5.2 ± 0.4 µM	5.5 ± 1.8 µM	8.5 ± 3.2 µM	204 to 206 °C	> 75 µM	52 µM	75 µM	
CC[C@]1(O)C[C@H]2CN(CCc3c([nH]c4ccccc34)[C@@](C(=O)OC)(c3cc4c(cc3OC)N(C=O)[C@H]3[C@@](O)(C(=O)OC)[C@H](OC(C)=O)[C@]5(CC)C=CCN6CC[C@]43[C@@H]65)C2)C1 [Vincristine, reference compound]	0.006 ± 0.002 µM	0.01 ± 0.02 µM	> 4 µM	0.05 ± 0.02 µM	> 4 µM	0.02 ± 0.01 µM	0.003 ± 0.001 µM	0.003 ± 0.001 µM					
